Assays:
cocklebur = assay: Test B pre/postemergence cocklebur; assay type: in vivo, Xanthium strumarium
Procedure, shortened: (§1)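 Test chemicals in a non-phytotoxic solvent mixture with surfactant were sprayed preemergence onto planted seeds and postemergence onto plants 2 to 18 cm tall (1- to 4-leaf stage). After twelve to sixteen days in a greenhouse, injury was visually rated against untreated controls from 0 (no effect) to 10 (complete control).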

soybean = assay: Test B pre/postemergence soybean; assay type: in vivo, Glycine max
Procedure, shortened: as §1

surinam grass = assay: Test B pre/postemergence surinam grass; assay type: in vivo, Brachiaria decumbens
Procedure, shortened: as §1

bedstraw = assay: Test B pre/postemergence bedstraw; assay type: in vivo, Galium aparine
Procedure, shortened: as §1

bamyardgrass = assay: Test B flood test barnyardgrass; assay type: in vivo, Echinochloa crus-galli
Procedure, shortened: (§2)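 Flood test on plants grown to the 2-leaf stage; treated plants kept in greenhouse twelve to sixteen days, then visually rated against controls on a 0 (no effect) to 10 (complete control) scale.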

wild oat = assay: Test B pre/postemergence wild oat; assay type: in vivo, Avena fatua
Procedure, shortened: as §1

giant foxtail = assay: Test B pre/postemergence giant foxtail; assay type: in vivo, Setaria faberii
Procedure, shortened: as §1

velvetleaf = assay: Test B pre/postemergence velvetleaf; assay type: in vivo, Abutilon theophrasti
Procedure, shortened: as §1

purple nutsedge = assay: Test B pre/postemergence purple nutsedge; assay type: in vivo, Cyperus rotundus
Procedure, shortened: as §1

corn = assay: Test B pre/postemergence corn; assay type: in vivo, Zea mays
Procedure, shortened: as §1

rice = assay: Test B flood test rice; assay type: in vivo, Oryza sativa
Procedure, shortened: as §2

crabgrass = assay: Test B pre/postemergence crabgrass; assay type: in vivo, Digitaria sanguinalis
Procedure, shortened: as §1

smallflower flatsedge = assay: Test B flood test smallflower flatsedge; assay type: in vivo, Cyperus difformis
Procedure, shortened: as §2

blackgrass = assay: Test B pre/postemergence blackgrass; assay type: in vivo, Alopecurus myosuroides
Procedure, shortened: as §1

sugar beet = assay: Test B pre/postemergence sugar beet; assay type: in vivo, Beta vulgaris
Procedure, shortened: as §1

pigweed = assay: Test B pre/postemergence pigweed; assay type: in vivo, Amaranthus retroflexus
Procedure, shortened: as §1

[1] = Postemergence, Rate 62 g/ha, scale 0 to 10, 0 is no effect, 10 is complete control
[2] = Postemergence, Rate 250 g/ha, scale 0 to 10, 0 no effect, 10 complete control
[3] = Preemergence, Rate 31 g/ha, visual rating, scale 0 to 10 (0 no effect, 10 complete control)
[4] = Preemergence, Rate 62 g/ha, scale 0 to 10, 0 is no effect, 10 is complete control
[5] = Preemergence, Rate 125 g/ha, scale 0 to 10 (0 no effect, 10 complete control)
[6] = Preemergence, Rate 250 g/ha, scale of 0 to 10 where 0 is no effect and 10 is complete control
[7] = Rate 31 g/ha, Postemergence, scale 0 to 10
[8] = Rate 125 g/ha, Postemergence, scale 0 to 10, 0 no effect, 10 complete control
[9] = Rate 125 g/ha, Postemergence section (flood test species), scale 0 to 10, 0 no effect, 10 complete control
[10] = Rate 500 g/ha, Postemergence section of Table B, 0 to 10 scale (0 no effect, 10 complete control)
[11] = flood test, listed under Postemergence, Rate 250 g/ha, scale 0 to 10, 0 no effect, 10 complete control

CCN(C(=O)n1oc(=O)n(-c2c(C)cccc2C)c1=O)C1CCCCC1 [Compound 27]
2: Soybean plant response rating (soybean; [2]) | Rice plant response rating (rice; [10])
1: Soybean plant response rating (soybean; [1]) | Soybean plant response rating (soybean; [8])
8: Barnyardgrass plant response rating (bamyardgrass; [11])
0: Cocklebur plant response rating (cocklebur; [1]) | Cocklebur plant response rating (cocklebur; [2]) | Cocklebur plant response rating (cocklebur; [3]) | Plant response rating, Cocklebur (cocklebur; [4]) | Plant response rating, Cocklebur (cocklebur; [5]) | Plant response rating, Cocklebur (cocklebur; [6]) | Cocklebur plant response rating (cocklebur; [7]) | Cocklebur plant response rating (cocklebur; [8]) | Soybean plant response rating (soybean; [3]) | Plant response rating, Soybean (soybean; [4]) | Plant response rating, Soybean (soybean; [5]) | Plant response rating, Soybean (soybean; [6]) | B. signalgrass plant response rating (surinam grass; [1]) | B. signalgrass plant response rating (surinam grass; [2]) | B. signalgrass plant response rating (surinam grass; [3]) | Plant response rating, B. signalgrass (surinam grass; [4]) | Plant response rating, B. signalgrass (surinam grass; [5]) | Plant response rating, B. signalgrass (surinam grass; [6]) | B. signalgrass plant response rating (surinam grass; [7]) | B. signalgrass plant response rating (surinam grass; [8]) | Bedstraw plant response rating (bedstraw; [1]) | Bedstraw plant response rating (bedstraw; [2]) | Bedstraw plant response rating (bedstraw; [3]) | Plant response rating, Bedstraw (bedstraw; [4]) | Plant response rating, Bedstraw (bedstraw; [5]) | Plant response rating, Bedstraw (bedstraw; [6]) | Bedstraw plant response rating (bedstraw; [7]) | Bedstraw plant response rating (bedstraw; [8]) | Barnyardgrass plant response rating (bamyardgrass; [1]) | Barnyardgrass plant response rating (bamyardgrass; [9]) | Wild oats plant response rating (wild oat; [1]) | Wild oats plant response rating (wild oat; [2]) | Wild oats plant response rating (wild oat; [3]) | Plant response rating, Wild oats (wild oat; [5]) | Plant response rating, Wild oats (wild oat; [6]) | Wild oats plant response rating (wild oat; [8]) | Giant foxtail plant response rating (giant foxtail; [1]) | Giant foxtail plant response rating (giant foxtail; [2]) | Giant foxtail plant response rating (giant foxtail; [3]) | Plant response rating, Giant foxtail (giant foxtail; [4]) | Plant response rating, Giant foxtail (giant foxtail; [5]) | Plant response rating, Giant foxtail (giant foxtail; [6]) | Giant foxtail plant response rating (giant foxtail; [7]) | Giant foxtail plant response rating (giant foxtail; [8]) | Velvetleaf plant response rating (velvetleaf; [1]) | Velvetleaf plant response rating (velvetleaf; [2]) | Velvetleaf plant response rating (velvetleaf; [3]) | Plant response rating, Velvetleaf (velvetleaf; [4]) | Plant response rating, Velvetleaf (velvetleaf; [5]) | Plant response rating, Velvetleaf (velvetleaf; [6]) | Velvetleaf plant response rating (velvetleaf; [8]) | Nutsedge plant response rating (purple nutsedge; [1]) | Nutsedge plant response rating (purple nutsedge; [2]) | Nutsedge plant response rating (purple nutsedge; [3]) | Plant response rating, Nutsedge (purple nutsedge; [4]) | Plant response rating, Nutsedge (purple nutsedge; [5]) | Plant response rating, Nutsedge (purple nutsedge; [6]) | Nutsedge plant response rating (purple nutsedge; [7]) | Nutsedge plant response rating (purple nutsedge; [8]) | Corn plant response rating (corn; [1]) | Corn plant response rating (corn; [2]) | Corn plant response rating (corn; [3]) | Plant response rating, Corn (corn; [4]) | Plant response rating, Corn (corn; [5]) | Plant response rating, Corn (corn; [6]) | Corn plant response rating (corn; [7]) | Corn plant response rating (corn; [8]) | Rice plant response rating (rice; [1]) | Rice plant response rating (rice; [9]) | Rice plant response rating (rice; [11]) | Crabgrass plant response rating (crabgrass; [1]) | Crabgrass plant response rating (crabgrass; [2]) | Crabgrass plant response rating (crabgrass; [3]) | Plant response rating, Crabgrass (crabgrass; [4]) | Plant response rating, Crabgrass (crabgrass; [5]) | Plant response rating, Crabgrass (crabgrass; [6]) | Crabgrass plant response rating (crabgrass; [7]) | Crabgrass plant response rating (crabgrass; [8]) | S. Flatsedge plant response rating (smallflower flatsedge; [1]) | S. Flatsedge plant response rating (smallflower flatsedge; [9]) | S. Flatsedge plant response rating (smallflower flatsedge; [11]) | Blackgrass plant response rating (blackgrass; [1]) | Blackgrass plant response rating (blackgrass; [2]) | Blackgrass plant response rating (blackgrass; [3]) | Plant response rating, Blackgrass (blackgrass; [4]) | Plant response rating, Blackgrass (blackgrass; [5]) | Plant response rating, Blackgrass (blackgrass; [6]) | Blackgrass plant response rating (blackgrass; [7]) | Blackgrass plant response rating (blackgrass; [8]) | Sugarbeets plant response rating (sugar beet; [1]) | Sugarbeets plant response rating (sugar beet; [2]) | Sugarbeets plant response rating (sugar beet; [3]) | Plant response rating, Sugarbeets (sugar beet; [4]) | Plant response rating, Sugarbeets (sugar beet; [5]) | Plant response rating, Sugarbeets (sugar beet; [6]) | Sugarbeets plant response rating (sugar beet; [8]) | Redroot pigweed plant response rating (pigweed; [1]) | Redroot pigweed plant response rating (pigweed; [2]) | Redroot pigweed plant response rating (pigweed; [3]) | Plant response rating, Redroot pigweed (pigweed; [4]) | Plant response rating, Redroot pigweed (pigweed; [5]) | Plant response rating, Redroot pigweed (pigweed; [6]) | Redroot pigweed plant response rating (pigweed; [7]) | Redroot pigweed plant response rating (pigweed; [8])
9: Barnyardgrass plant response rating (bamyardgrass; [10])
